Legend:
Assay in all cases: combination Emax (second highest fraction inhibited in the dose matrix, 72 h); higher = more inhibition; extreme values may be limits of the assay
[1] = test system: Hs-766T (Pancreatic Carcinoma)
Outline: (§1)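 After 24 hours at 37°C and 5% CO2 in 1536-well plates, cells in DMEM/F12 or RPMI plus 10% FBS received two-drug dose matrices for 72 hours. Viability came from CellTiter-Glo 2.0 luminescence and was scaled as inhibition, anchored at 0 by vehicle wells and at 1 by blank wells. Combination Emax is taken as the second-highest inhibition in the matrix, and Bliss excess as the observed combination effect less EA + EB − EA·EB, with EA and EB the single-agent effects.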

[2] = test system: KYSE-450 (Esophageal Squamous Cell Carcinoma)
Outline: as §1

[3] = test system: NCI-H358 (Lung Adenocarcinoma)
Outline: as §1

[4] = test system: MLMA (Other Blood Carcinomas)
Outline: as §1

[5] = test system: NUGC-3 (Gastric Carcinoma)
Outline: as §1

[6] = test system: OVCAR-4 (Ovarian Carcinoma)
Outline: as §1

[7] = test system: HGC-27 (Gastric Carcinoma)
Outline: as §1

[8] = test system: ACHN (Kidney Carcinoma)
Outline: as §1

[9] = test system: AMO-1 (Plasma Cell Myeloma)
Outline: as §1

[10] = test system: OSC-20 (Oral Cavity Carcinoma)
Outline: as §1

[11] = test system: TE-1 (Esophageal Squamous Cell Carcinoma)
Outline: as §1

[12] = test system: LU-65 (Non-Small Cell Lung Carcinoma)
Outline: as §1

[13] = test system: SU8686 (Pancreatic Carcinoma)
Outline: as §1

[14] = test system: TGW (Neuroblastoma)
Outline: as §1

[15] = test system: NCI-H1915 (Non-Small Cell Lung Carcinoma)
Outline: as §1

[16] = test system: TK10 (Kidney Carcinoma)
Outline: as §1

[17] = test system: Caov-4 (Ovarian Carcinoma)
Outline: as §1

[18] = test system: NCI-H727 (Other Solid Carcinomas)
Outline: as §1

[19] = test system: OE19 (Esophageal Adenocarcinoma)
Outline: as §1

[20] = test system: HSC-4 (Oral Cavity Carcinoma)
Outline: as §1

SMILES	combination Emax [1]	combination Emax [2]	combination Emax [3]	combination Emax [4]	combination Emax [5]	combination Emax [6]	combination Emax [7]	combination Emax [8]	combination Emax [9]	combination Emax [10]	combination Emax [11]	combination Emax [12]	combination Emax [13]	combination Emax [14]	combination Emax [15]	combination Emax [16]	combination Emax [17]	combination Emax [18]	combination Emax [19]	combination Emax [20]
Cc1c2c(nn1C)CSCc1cc(n(C)n1)CSc1cc(c3ccccc3c1)OCCCc1c(C(=O)O)n(C)c3c-2c(Cl)ccc13 [AZD5991] + C[C@@H](Nc1cc(F)cc(F)c1)c1cc(C(=O)N(C)C)cc2c(=O)cc(N3CCOCC3)oc12 [AZD8186] (first compound max 1 µM, 7x7, partner max 3 µM)	0.45	0.234	0.282	0.532	0.209	0.288	0.691	0.342	1	0.237	0.589	0.449	0.378	0.347	0.184	0.419	0.507	0.274	0.49	0.24
Cc1c2c(nn1C)CSCc1cc(n(C)n1)CSc1cc(c3ccccc3c1)OCCCc1c(C(=O)O)n(C)c3c-2c(Cl)ccc13 [AZD5991] + CC1(C)CCC(CN2CCN(c3ccc(C(=O)NS(=O)(=O)c4ccc(NCC5CCOCC5)c([N+](=O)[O-])c4)c(Oc4cnc5[nH]ccc5c4)c3)CC2)=C(c2ccc(Cl)cc2)C1 [Venetoclax] (first compound max 1 µM, 7x7, partner max 1 µM)	0.184	0.189	0.217	0.248	0.196	0.188	0.895	0.192	1	0.145	0.65	0.393	0.0608	0.857	0.187	0.208	0.616	0.258	0.457	0.142
CC1(C)CCC(CN2CCN(c3ccc(C(=O)NS(=O)(=O)c4ccc(NCC5CCOCC5)c([N+](=O)[O-])c4)c(Oc4cnc5[nH]ccc5c4)c3)CC2)=C(c2ccc(Cl)cc2)C1 [Venetoclax] + C[C@@H]1COCCN1C2=NC(=NC(=C2)C3(CC3)[S@](=N)(=O)C)C4=C5C=CNC5=NC=C4 [AZD6738] (first compound max 1 µM, 7x7, partner max 10 µM)	0.565	0.519	0.731	0.909	0.711	0.684	0.8	0.937	0.904	0.425	0.543	0.652	0.0868	0.715	0.538	0.609	0.751	0.616	0.673	0.601
NC1(C(=O)N[C@@H](CCO)c2ccc(Cl)cc2)CCN(c2ncnc3[nH]ccc23)CC1 [Capivasertib] + CC(C)n1c(=O)n(C)c2cnc3cc(F)c(-c4ccc(OCCCN5CCCCC5)nc4)cc3c21 [AZD1390] (first compound max 10 µM, 7x7, partner max 0.3 µM)	0.209	0.306	0.374	0.452	0.339	0.162	0.852	0.185	0.633	0.256	0.153	0.401	0.113	0.172	0.287	0.411	0.245	0.35	0.346	0.337
COc1cccc(OCCCN)c1-c1cc(Nc2cnc(C#N)cn2)n[nH]1 [Prexasertib] + C=CCn1c(=O)c2cnc(Nc3ccc(N4CCN(C)CC4)cc3)nc2n1-c1cccc(C(C)(C)O)n1 [AZD1775] (first compound max 1 µM, partner max 1 µM)	0.694	0.999	0.769	0.963	0.873	0.866	0.991	0.96	0.99	0.534	0.763	0.873	0.531	0.999	0.749	0.661	0.98	0.701	0.943	0.641
COc1cccc(OCCCN)c1-c1cc(Nc2cnc(C#N)cn2)n[nH]1 [Prexasertib] + Cc1cc2ncnn2cc1Nc1ncc2c(n1)n(C1CCOCC1)c(=O)n2C [AZD7648] (first compound max 1 µM, 7x7, partner max 10 µM)	0.709	0.584	0.769	0.96	0.747	0.777	0.858	0.935	0.986	0.599	0.694	0.822	0.528	0.947	0.602	0.738	0.959	0.695	0.897	0.588
Cc1c2c(nn1C)CSCc1cc(n(C)n1)CSc1cc(c3ccccc3c1)OCCCc1c(C(=O)O)n(C)c3c-2c(Cl)ccc13 [AZD5991] + C=CCn1c(=O)c2cnc(Nc3ccc(N4CCN(C)CC4)cc3)nc2n1-c1cccc(C(C)(C)O)n1 [AZD1775] (first compound max 1 µM, partner max 1 µM)	0.496	0.763	0.649	0.952	0.78	0.742	0.626	0.938	1	0.346	0.89	0.586	0.33	0.806	0.649	0.498	0.928	0.358	0.722	0.507
CC1(C)CCC(CN2CCN(c3ccc(C(=O)NS(=O)(=O)c4ccc(NCC5CCOCC5)c([N+](=O)[O-])c4)c(Oc4cnc5[nH]ccc5c4)c3)CC2)=C(c2ccc(Cl)cc2)C1 [Venetoclax] + CN(C)CCCOc1ccc(-c2ccc3ncc4c(c3c2)n(C2CCOCC2)c(=O)n4C)cn1 [AZD0156] (first compound max 1 µM, 7x7, partner max 1 µM)	0.41	0.15	0.325	0.93	0.276	0.173	0.362	0.78	0.814	0.16	0.098	0.362	0.152	0.32	0.285	0.304	0.226	0.317	0.281	0.14
COc1nnc2ccc(N3CCC(c4ccc(OCCN5CCN(C)C(=O)[C@H]5C)cc4)CC3)nn12 [AZD5153] + C[C@@H]1COCCN1C2=NC(=NC(=C2)C3(CC3)[S@](=N)(=O)C)C4=C5C=CNC5=NC=C4 [AZD6738] (first compound max 1 µM, 7x7, partner max 10 µM)	0.543	0.481	0.698	0.967	0.775	0.711	0.859	0.928	0.978	0.309	0.617	0.734	0.1	0.728	0.546	0.695	0.894	0.59	0.616	0.528
C=CCn1c(=O)c2cnc(Nc3ccc(N4CCN(C)CC4)cc3)nc2n1-c1cccc(C(C)(C)O)n1 [AZD1775] + O=C(c1cc(Cc2n[nH]c(=O)c3ccccc23)ccc1F)N1CCN(C(=O)C2CC2)CC1 [Olaparib] (first compound max 1 µM, partner max 10 µM)	0.473	0.687	0.447	0.882	0.547	0.472	0.799	0.907	0.728	0.289	0.552	0.609	0.182	0.821	0.668	0.455	0.779	0.368	0.301	0.461
COc1nnc2ccc(N3CCC(c4ccc(OCCN5CCN(C)C(=O)[C@H]5C)cc4)CC3)nn12 [AZD5153] + Cc1c2c(nn1C)CSCc1cc(n(C)n1)CSc1cc(c3ccccc3c1)OCCCc1c(C(=O)O)n(C)c3c-2c(Cl)ccc13 [AZD5991] (first compound max 1 µM, 7x7, partner max 1 µM)	0.459	0.494	0.448	0.994	0.519	0.523	0.987	0.537	1	0.199	0.511	0.623	0.134	0.808	0.502	0.593	0.86	0.388	0.623	0.199
CC1(C)CCC(CN2CCN(c3ccc(C(=O)NS(=O)(=O)c4ccc(NCC5CCOCC5)c([N+](=O)[O-])c4)c(Oc4cnc5[nH]ccc5c4)c3)CC2)=C(c2ccc(Cl)cc2)C1 [Venetoclax] + C[C@@H](Nc1cc(F)cc(F)c1)c1cc(C(=O)N(C)C)cc2c(=O)cc(N3CCOCC3)oc12 [AZD8186] (first compound max 1 µM, 7x7, partner max 3 µM)	0.349	0.118	0.149	0.89	0.183	0.138	0.54	0.842	0.842	0.128	0.217	0.199	0.127	0.377	0.118	0.465	0.171	0.274	0.306	0.177
